Measured values published in patent US11028088B2, “Modulators of BTK proteolysis and methods of use” (Yale University, priority 2018, dated 2021).
Where two headings read alike, the source gives them in different places.

Columns and labels:
[1] = biological target: T1, HER3 (Homo sapiens, UniProt P21860); test: HER3/ERBB3 degradation (western blot, OVCAR8 cells); assay type: cell-based
T1 construct: endogenous in cells; host or cells: OVCAR8
Description: FIG. 10 illustrates a Western blot of Compound 102-related degradation of ERBB3.
In various embodiments, treatment with PROTAC was performed in one of two ways: 1) For experiments involving >16 h exposure to compound, a 1000× stock was added to cells followed by gentle agitation; 2) For shorter treatments, a 2× stock was added to an equal volume of cells to ensure uniform drug exposure. For immortalized cell lines, 2×10^6 cells per treatment condition were collected and washed once with ice cold PBS (IX), followed by lysis in buffer containing 20 mM Tris [pH 8.0], 0.25% sodium deoxycholate, 1% Triton X-100, supplemented with protease (Roche) and phosphatase inhibitors (10 mM NaF, 2 mM Na3VO4, 10 mM β-glycerophosphate, 10 mM Na-pyrophosphate). Lysates were spun at 15,000×g for 10 min at 4° C. and supernatant was quantified for total protein content using the Pierce BCA Protein Assay (Thermo Fisher Scientific). 30 μg of protein was loaded onto 12% SDS-PAGE gels or 4-15% Mini-PROTEAN TGX precast gradient gels (Bio-Rad), transferred onto nitrocellulose membranes, and probed with the specified primary antibodies overnight with rocking at 4° C. in 1×TBS-T containing 5% non-fat milk.
(§1) Either anti-rabbit or anti-mouse HRP-conjugated secondary antibodies (Pierce) were incubated with the membranes for 1 h at room temperature at 1:10,000 dilutions in 5% non-fat milk in IX TBS-T. Imaging was performed using the ECL Prime chemiluminescent western blot detection reagents (Amersham) followed by visualization with the Bio-Rad ChemiDoc imaging instrument. All western blots were subsequently processed and quantified using the accompanying Bio-Rad Image Lab software. Primary antibodies used were: Anti-actin antibody (Cat. #MA 1-744) purchased from ThermoFisher Scientific; anti-BTK (Cat. #8547), anti-pBTK (Y223, Cat. #5082), anti-ITK (Cat. #2380), anti-GAPDH (Cat. #5179), anti-IKZF1 (Cat. #9034), and anti-IKZF3 (Cat. #15103) antibodies purchased from Cell Signaling Technology. All antibodies were used at 1:1,000 dilutions in 5% non-fat milk in 1×TBS-Tween (TBS-T) or Blotto blocker (Thermo Scientific) unless otherwise noted in supplier specifications.

[2] = biological target: BTK (Homo sapiens, UniProt Q06187); test: BTK degradation in NAMALWA cells (immunoblot); assay type: cell-based; parameters: host or cells: NAMALWA; settings: NAMALWA cells; for DC50: concentration needed to degrade 50% of the total pool of BTK; for Max: maximal BTK degradation
Sequence of BTK (Q06187 whole entry): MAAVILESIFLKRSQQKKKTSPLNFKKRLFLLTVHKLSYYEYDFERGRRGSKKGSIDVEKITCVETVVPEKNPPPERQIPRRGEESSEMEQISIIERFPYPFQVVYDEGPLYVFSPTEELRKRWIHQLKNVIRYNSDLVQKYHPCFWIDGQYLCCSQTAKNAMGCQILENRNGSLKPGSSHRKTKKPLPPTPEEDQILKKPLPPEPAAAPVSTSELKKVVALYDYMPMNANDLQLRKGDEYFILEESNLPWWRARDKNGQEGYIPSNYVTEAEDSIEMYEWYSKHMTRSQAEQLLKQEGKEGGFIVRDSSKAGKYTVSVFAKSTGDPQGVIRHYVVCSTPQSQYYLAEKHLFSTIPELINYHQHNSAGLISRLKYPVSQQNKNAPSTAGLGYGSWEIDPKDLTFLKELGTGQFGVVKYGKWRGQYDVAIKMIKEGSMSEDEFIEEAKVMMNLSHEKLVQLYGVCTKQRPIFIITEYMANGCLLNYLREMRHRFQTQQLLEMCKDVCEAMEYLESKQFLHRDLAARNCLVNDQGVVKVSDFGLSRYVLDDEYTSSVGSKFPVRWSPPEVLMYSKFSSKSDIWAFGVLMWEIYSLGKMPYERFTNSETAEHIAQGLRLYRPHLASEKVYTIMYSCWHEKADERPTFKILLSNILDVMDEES
Description: NAMALWA and Jurkat cell lines were purchased from ATCC and cultured according to supplier guidelines at 37° C. […] Wild-type and C481S BTK XLA cell lines were cultured as previously described (39). Written, informed consent was obtained prior to the collection of cells from CLL patients using the IWCLL2008 criteria. Isolation of mononuclear cells from peripheral blood was prepared using density gradient centrifugation. B-cells were then negatively selected ([…] Technologies). […] They were maintained at 37° C. in 5% CO2.
Lysates were spun at 15,000×g for 10 min at 4° C. and supernatant was quantified for total protein content using the Pierce BCA Protein Assay (Thermo Fisher Scientific).
as §1, with “Primary antibodies used were: Anti-actin antibody (Cat. #MA 1-744) purchased from ThermoFisher Scientific; anti-BTK (Cat. #8547), anti-pBTK (Y223, Cat. #5082), anti-ITK (Cat. #2380), anti-GAPDH (Cat. #5179), anti-IKZF1 (Cat. #9034), and anti-IKZF3 (Cat. #15103) antibodies purchased from Cell Signaling Technology.” left out

T1 sequence (P21860 20-1342): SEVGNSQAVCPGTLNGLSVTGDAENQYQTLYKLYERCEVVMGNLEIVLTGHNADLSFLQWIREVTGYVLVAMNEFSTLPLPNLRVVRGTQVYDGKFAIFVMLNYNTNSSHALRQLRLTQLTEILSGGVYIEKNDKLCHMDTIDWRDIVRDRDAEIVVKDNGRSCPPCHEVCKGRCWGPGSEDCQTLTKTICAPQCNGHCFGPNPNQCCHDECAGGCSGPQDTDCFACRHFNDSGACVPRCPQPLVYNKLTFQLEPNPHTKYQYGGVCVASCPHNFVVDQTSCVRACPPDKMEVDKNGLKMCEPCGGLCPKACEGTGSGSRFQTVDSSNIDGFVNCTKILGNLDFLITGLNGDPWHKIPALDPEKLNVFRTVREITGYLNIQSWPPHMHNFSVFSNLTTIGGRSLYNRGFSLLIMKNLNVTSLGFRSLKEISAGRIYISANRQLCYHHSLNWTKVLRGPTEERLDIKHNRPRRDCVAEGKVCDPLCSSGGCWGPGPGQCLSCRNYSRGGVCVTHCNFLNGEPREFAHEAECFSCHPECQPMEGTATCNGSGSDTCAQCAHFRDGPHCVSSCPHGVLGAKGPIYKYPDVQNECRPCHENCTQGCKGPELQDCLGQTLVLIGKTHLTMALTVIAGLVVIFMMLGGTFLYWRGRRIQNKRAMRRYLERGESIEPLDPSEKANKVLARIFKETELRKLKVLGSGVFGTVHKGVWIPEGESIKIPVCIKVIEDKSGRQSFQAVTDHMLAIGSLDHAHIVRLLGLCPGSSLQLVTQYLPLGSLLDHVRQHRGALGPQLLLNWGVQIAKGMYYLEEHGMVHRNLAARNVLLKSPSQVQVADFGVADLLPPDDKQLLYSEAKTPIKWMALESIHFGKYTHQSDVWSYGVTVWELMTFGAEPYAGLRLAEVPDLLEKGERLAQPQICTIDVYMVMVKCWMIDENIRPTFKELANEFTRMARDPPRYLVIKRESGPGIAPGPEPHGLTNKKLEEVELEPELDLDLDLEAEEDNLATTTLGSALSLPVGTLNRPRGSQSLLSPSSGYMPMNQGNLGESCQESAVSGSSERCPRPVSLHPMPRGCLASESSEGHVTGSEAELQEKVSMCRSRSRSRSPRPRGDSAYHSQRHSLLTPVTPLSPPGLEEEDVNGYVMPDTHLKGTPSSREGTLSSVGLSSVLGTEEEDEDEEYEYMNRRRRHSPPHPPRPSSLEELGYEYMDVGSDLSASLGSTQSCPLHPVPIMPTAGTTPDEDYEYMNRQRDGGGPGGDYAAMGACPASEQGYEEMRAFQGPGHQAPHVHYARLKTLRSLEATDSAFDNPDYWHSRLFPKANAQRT

Structure (SMILES)	HER3 Degradation [1]	DC50 ([2]; read-out: DC50) [µM]	Max ([2]; at 1.0 μM) [%]	Max ([2]; at 2.5 μM) [%]	DC50 [2]	degradation of BTK at 1.0 μM ([2]; 1.0 μM)
Nc1ncnc2c1c(-c1ccc(Oc3ccccc3)cc1)nn2C1CCN(CCCCOCCCCOCC(=O)Nc2cccc3c2C(=O)N(C2CCC(=O)NC2=O)C3=O)CC1 (stereo not drawn) [Compound 106, 2-[4-[4-[4-[4-amino-3-(4-phenoxyphenyl)pyrazolo[3,4-d]pyrimidin-1-yl]-1-piperidyl]butoxy]butoxy]-N-[2-(2,6-dioxo-3-piperidyl)-1,3-dioxo-isoindolin-4-yl]acetamide]	No	0.0901	93	–	–	nearly complete degradation
Nc1ncnc2c1c(-c1ccc(Oc3ccccc3)cc1)nn2C1CCN(CCCCCCOCCCCCCOCC(=O)Nc2cccc3c2C(=O)N(C2CCC(=O)NC2=O)C3=O)CC1 (stereo not drawn) [Compound 107, 2-(6-(6-(4-(4-amino-3-(4-phenoxyphenyl)-1H-pyrazolo[3,4-d]pyrimidin-1-yl)piperidin-1-yl)hexyloxy)hexyloxy)-N-(2-(2,6-dioxopiperidin-3-yl)-1,3-dioxoisoindolin-4-yl)acetamide]	No	0.0985	98	–	–	–
Cc1ncsc1-c1ccc(CNC(=O)[C@@H]2C[C@@H](O)CN2C(=O)[C@@H](NC(=O)COCCOCCOCCOCCN2CCC(n3nc(-c4ccc(Oc5ccccc5)cc4)c4c(N)ncnc43)CC2)C(C)(C)C)cc1 [Compound 109, (2S,4R)-1-((S)-17-(4-(4-amino-3-(4-phenoxyphenyl)-1H-pyrazolo[3,4-d]pyrimidin-1-yl)piperidin-1-yl)-2-tert-butyl-4-oxo-6,9,12,15-tetraoxa-3-azaheptadecane)-4-hydroxy-N-(4-(4-methylthiazol-5-yl)benzyl)pyrrolidine-2-carboxamide]	No	0.278	–	73	–	–
Cc1ncsc1-c1ccc(CNC(=O)[C@@H]2C[C@@H](O)CN2C(=O)[C@@H](NC(=O)COCCOCCOCCCCCCN2CCC(n3nc(-c4ccc(Oc5ccccc5)cc4)c4c(N)ncnc43)CC2)C(C)(C)C)cc1 [Compound 110, (2S,4R)-1-((S)-19-(4-(4-amino-3-(4-phenoxyphenyl)-1H-pyrazolo[3,4-d]pyrimidin-1-yl)piperidin-1-yl)-2,2-dimethyl-5-oxo-7,10,13-trioxa-4-azanonadecanecarbonyl)-4-hydroxy-N-(4-(4-methylthiazol-5-yl)benzyl)pyrrolidine-2-carboxamide]	No	–	–	–	No Degradation	–
Cc1ncsc1-c1ccc(CNC(=O)[C@@H]2C[C@@H](O)CN2C(=O)[C@@H](NC(=O)COCCCCCOCCCCCCN2CCC(n3nc(-c4ccc(Oc5ccccc5)cc4)c4c(N)ncnc43)CC2)C(C)(C)C)cc1 [Compound 111, (2S,4R)-1-((S)-2-(2-(5-(6-(4-(4-amino-3-(4-phenoxyphenyl)-1H-pyrazolo[3,4-d]pyrimidin-1-yl)piperidin-1-yl)hexyloxy)pentyloxy)acetamido)-3,3-dimethylbutanoyl)-4-hydroxy-N-(4-(4-methylthiazol-5-yl)benzyl)pyrrolidine-2-carboxamide]	No	0.144	45	–	–	–
Cc1ncsc1-c1ccc(CNC(=O)[C@@H]2C[C@@H](O)CN2C(=O)[C@@H](NC(=O)CCCCCOCCOCCCCCCN2CCC(n3nc(-c4ccc(Oc5ccccc5)cc4)c4c(N)ncnc43)CC2)C(C)(C)C)cc1 [Compound 112, (2S,4R)-1-((S)-2-(6-(2-(6-(4-(4-amino-3-(4-phenoxyphenyl)-1H-pyrazolo[3,4-d]pyrimidin-1-yl)piperidin-1-yl)hexyloxy)ethoxy)hexanamido)-3,3-dimethylbutanoyl)-4-hydroxy-N-(4-(4-methylthiazol-5-yl)benzyl)pyrrolidine-2-carboxamide]	No	–	–	–	No Degradation	–
Cc1ncsc1-c1ccc(CNC(=O)[C@@H]2C[C@@H](O)CN2C(=O)[C@@H](NC(=O)CCCCCOCCOCCOCCCCCCN2CCC(n3nc(-c4ccc(Oc5ccccc5)cc4)c4c(N)ncnc43)CC2)C(C)(C)C)cc1 [Compound 116, (2S,4R)-1-((S)-23-(4-(4-amino-3-(4-phenoxyphenyl)-1H-pyrazolo[3,4-d]pyrimidin-1-yl)piperidin-1-yl)-2,2-dimethyl-5-oxo-11,14,17-trioxa-4-azatricosanecarbonyl)-4-hydroxy-N-(4-(4-methylthiazol-5-yl)benzyl)pyrrolidine-2-carboxamide]	No	–	–	–	No Degradation	–

Continued, in another order:

HER3 Degradation [1]	DC50 ([2]; read-out: DC50) [µM]	Max ([2]; at 1.0 μM) [%]	Max ([2]; at 2.5 μM) [%]	DC50 [2]	Structure (SMILES)	degradation of BTK at 1.0 μM ([2]; 1.0 μM)
No	0.124	60	–	–	Cc1ncsc1-c1ccc(CNC(=O)[C@@H]2C[C@@H](O)CN2C(=O)[C@@H](NC(=O)COCCOCCOCCOCCCCN2CCC(n3nc(-c4ccc(Oc5ccccc5)cc4)c4c(N)ncnc43)CC2)C(C)(C)C)cc1 [Compound 113, (2S,4R)-1-((S)-19-(4-(4-amino-3-(4-phenoxyphenyl)-1H-pyrazolo[3,4-d]pyrimidin-1-yl)piperidin-1-yl)-2-tert-butyl-4-oxo-6,9,12,15-tetraoxa-3-azanonadecane)-4-hydroxy-N-(4-(4-methylthiazol-5-yl)benzyl)pyrrolidine-2-carboxamide]	–
No	0.248	30	–	–	Cc1ncsc1-c1ccc(CNC(=O)[C@@H]2C[C@@H](O)CN2C(=O)[C@@H](NC(=O)COCCOCCOCCOCCN2CCN(C3CCC(n4nc(-c5ccc(Oc6ccccc6)cc5)c5c(N)ncnc54)CC3)CC2)C(C)(C)C)cc1 (stereo partly drawn) [Compound 114, (2S,4R)-1-((S)-17-(4-(4-(4-amino-3-(4-phenoxyphenyl)-1H-pyrazolo[3,4-d]pyrimidin-1-yl)cyclohexyl)piperazin-1-yl)-2-tert-butyl-4-oxo-6,9,12,15-tetraoxa-3-azaheptadecane)-4-hydroxy-N-(4-(4-methylthiazol-5-yl)benzyl)pyrrolidine-2-carboxamide]	–
No	0.231	32	–	–	Cc1ncsc1-c1ccc(CNC(=O)[C@@H]2C[C@@H](O)CN2C(=O)[C@@H](NC(=O)COCCOCCOCCOCCCCCCN2CCC(n3nc(-c4ccc(Oc5ccccc5)cc4)c4c(N)ncnc43)CC2)C(C)(C)C)cc1 [Compound 115, (2S,4R)-1-((S)-22-(4-(4-amino-3-(4-phenoxyphenyl)-1H-pyrazolo[3,4-d]pyrimidin-1-yl)piperidin-1-yl)-2,2-dimethyl-5-oxo-7,10,13,16-tetraoxa-4-azadocosanecarbonyl)-4-hydroxy-N-(4-(4-methylthiazol-5-yl)benzyl)pyrrolidine-2-carboxamide]	–
No	–	–	–	No Degradation	Cc1ncsc1-c1ccc(CNC(=O)[C@@H]2C[C@@H](O)CN2C(=O)[C@@H](NC(=O)CCCCCOCCCCCOCCCCCCN2CCC(n3nc(-c4ccc(Oc5ccccc5)cc4)c4c(N)ncnc43)CC2)C(C)(C)C)cc1 [Compound 117, (2S,4R)-1-((S)-2-(6-(5-(6-(4-(4-amino-3-(4-phenoxyphenyl)-1H-pyrazolo[3,4-d]pyrimidin-1-yl)piperidin-1-yl)hexyloxy)pentyloxy)hexanamido)-3,3-dimethylbutanoyl)-4-hydroxy-N-(4-(4-methylthiazol-5-yl)benzyl)pyrrolidine-2-carboxamide]	–
